Key:
[1] = disclosed in Patent Document 2; cited from earlier work
[2] = repeated oral administration; disclosed in Patent Document 2; cited from earlier work
[3] = tested on: VEGF induced retinal vascular permeability promotion; test: VEGF induced rabbit retinal vascular permeability promotion model; assay type: in vivo; conditions: 0.5 mg/eye intravitreal in PEG 400; VEGF 2 months after administration; vitreous fluorescein 2 days after VEGF
Experimental: By using the VEGF induced rabbit retinal vascular permeability promotion model, usefulness of the polyethylene glycol 400 formulation of Compound A was evaluated. Incidentally, the VEGF has been reported to promote retinochoroidal vascular permeability by intravitreal administration (Invest Ophthalmol Vis Sci. 2013; 54(1):503-11.), and has generally been used for preparation of a pathological condition accompanied by retinal and choroidal vascular disorder (for example, diabetic retinopathy, diabetic macular edema, retinal vein occlusion, retinal artery occlusion, exudative age-related macular degeneration, etc.).
To 1.5 g of the present compound A was added 12 mL of polyethylene glycol 400 (NOF CORPORATION) and the mixture was stirred, and after confirming the dissolution thereof, a suitable amount of polyethylene glycol 400 was added to make the whole amount 15 mL. […]
After 2 days from the VEGF administration, 0.1 mL/kg of a 10% fluorescein solution was intravenously administered to rabbits. After 2 hours from administration of the fluorescein, the fluorescein concentration in the vitreous body was measured by fluorophotometry, and this was used as an index of the retinal vascular permeability.
Thereafter, according to Formula 1, an inhibition ratio (%) of the administered medicine to the retinal vascular permeability promotion caused by VEGF was calculated. […]

SMILES | storage stability [1] | deposition of minerals in the stomach [2] | Inhibition ratio (%) (retinal vascular permeability) [3]
O=C(CO)Nc1cc(CSc2ncccc2C(=O)Nc2ccc(OC(F)(F)F)cc2)ccn1.O=S(=O)(O)c1ccccc1 [2-[[[2-[(hydroxyacetyl)amino]-4-pyridinyl]methyl]thio]-N-[4-(trifluoromethoxy)phenyl]-3-pyridinecaboxamide] | excellent | no deposition of minerals is recognized | –
O=C(CO)Nc1cc(CSc2ncccc2C(=O)Nc2ccc(OC(F)(F)F)cc2)ccn1 [Compound A, 2-[[[2-[(hydroxyacetyl)amino]-4-pyridinyl]methyl]thio]-N-[4-(trifluoromethoxy)phenyl]-3-pyridinecaboxamide] | – | – | 95.3%

— US20160228420A1, “POLYETHYLENE GLYCOL-CONTAINING COMPOSITION” (SANTEN PHARMACEUTICAL CO., LTD., priority 2013, published 2016)
